Results from PubChem BioAssay AID1963427 (Molecular Pharmacology Branch, DTP, NCI, 2024).
pIC50: −log10 of the molar value.

System: 317291-083-R-J1-PDC complex spheroid growth
Assay: Anticancer human tumor 317291-083-R-J1-PDC patient-derived soft tissue sarcoma cell line growth inhibition [Asc]
Conditions: for pIC50: curve of first compound; for viability, T/C: stronger effect = lower value; active means viability on the fitted dose curve at most 10% of control; inactive means the rest
In short: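 Concentration series start at each agent's clinical Cmax, or at 10 microM when none is established, and drop in half-log steps; agents are applied alone or together to complex spheroids built with HUVEC and hMSC.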
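Further: compound exposure lasted seven days after spheroids formed for three days.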
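Wherever viability, T/C is given: 100% = DMSO vehicle control wells.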

NC(=O)C(=Cn1cnc(-c2cc(C(F)(F)F)cc(C(F)(F)F)c2)n1)c1cncnc1 + Cc1c(S(C)(=O)=O)c(-c2cc(F)cc(N3CCN(c4ccc(NS(=O)(=O)c5ccc(NC(CCN6CCC(C(=O)OCCCP(=O)(O)O)CC6)CSc6ccccc6)c(S(=O)(=O)C(F)(F)F)c5)cc4)CC3)c2)c(-c2ccc(Cl)cc2)n1C(C)C
inactive: viability, T/C (second compound 0.0316 µM, first compound 0.000949 µM) 105% | viability, T/C (second compound 0.0316 µM, first compound 0.003 µM) 73.8% | viability, T/C (second compound 0.0316 µM, first compound 0.00949 µM) 71.2% | viability, T/C (second compound 0.0316 µM, first compound 0.03 µM) 47.7% | viability, T/C (second compound 0.0316 µM, first compound 0.0949 µM) 3.73% | viability, T/C (second compound 0.1 µM, first compound 0.000949 µM) 98.8% | viability, T/C (second compound 0.1 µM, first compound 0.003 µM) 94.7% | viability, T/C (second compound 0.1 µM, first compound 0.00949 µM) 72.6% | viability, T/C (second compound 0.1 µM, first compound 0.03 µM) 53.8% | viability, T/C (second compound 0.1 µM, first compound 0.0949 µM) 4.66% | viability, T/C (second compound 0.316 µM, first compound 0.000949 µM) 99.6% | viability, T/C (second compound 0.316 µM, first compound 0.003 µM) 114% | viability, T/C (second compound 0.316 µM, first compound 0.00949 µM) 59.6% | viability, T/C (second compound 0.316 µM, first compound 0.03 µM) 31.9% | viability, T/C (second compound 1 µM, first compound 0.000949 µM) 89.3% | viability, T/C (second compound 1 µM, first compound 0.003 µM) 88.8% | viability, T/C (second compound 1 µM, first compound 0.00949 µM) 69.8% | viability, T/C (second compound 1 µM, first compound 0.03 µM) 33.5% | viability, T/C (second compound 3.16 µM, first compound 0.000949 µM) 74.7% | viability, T/C (second compound 3.16 µM, first compound 0.003 µM) 76.1% | viability, T/C (second compound 3.16 µM, first compound 0.00949 µM) 59.4% | viability, T/C (second compound 3.16 µM, first compound 0.03 µM) 31.6% | viability, T/C (second compound 10 µM, first compound 0.000949 µM) 105% | viability, T/C (second compound 10 µM, first compound 0.003 µM) 118% | viability, T/C (second compound 10 µM, first compound 0.00949 µM) 84.4% | viability, T/C (second compound 10 µM, first compound 0.03 µM) 44.5%
7.81: pIC50 (second compound 0.316 µM)
7.62: pIC50 (second compound 10 µM)
7.84: pIC50 (second compound 3.16 µM)
7.75: pIC50 (second compound 1 µM)
7.71: pIC50 (second compound 0.0316 µM)
7.58: pIC50 (second compound 0.1 µM)
active: viability, T/C (second compound 0.0316 µM, first compound 0.3 µM) 1.57% | viability, T/C (second compound 0.1 µM, first compound 0.3 µM) 0.74% | viability, T/C (second compound 0.316 µM, first compound 0.0949 µM) 1.71% | viability, T/C (second compound 0.316 µM, first compound 0.3 µM) 0.54% | viability, T/C (second compound 1 µM, first compound 0.0949 µM) 5.89% | viability, T/C (second compound 1 µM, first compound 0.3 µM) 0.53% | viability, T/C (second compound 3.16 µM, first compound 0.0949 µM) 2.57% | viability, T/C (second compound 3.16 µM, first compound 0.3 µM) 0.29% | viability, T/C (second compound 10 µM, first compound 0.0949 µM) 1.64% | viability, T/C (second compound 10 µM, first compound 0.3 µM) 0.33%

NC1CCC(NC2CC2c2ccccc2)CC1 (centres undefined) + Cc1c(S(C)(=O)=O)c(-c2cc(F)cc(N3CCN(c4ccc(NS(=O)(=O)c5ccc(NC(CCN6CCC(C(=O)OCCCP(=O)(O)O)CC6)CSc6ccccc6)c(S(=O)(=O)C(F)(F)F)c5)cc4)CC3)c2)c(-c2ccc(Cl)cc2)n1C(C)C
inactive: viability, T/C (second compound 0.0316 µM, first compound 0.000316 µM) 120% | viability, T/C (second compound 0.0316 µM, first compound 0.001 µM) 87.3% | viability, T/C (second compound 0.0316 µM, first compound 0.00316 µM) 98.2% | viability, T/C (second compound 0.0316 µM, first compound 0.01 µM) 99% | viability, T/C (second compound 0.0316 µM, first compound 0.0316 µM) 106% | viability, T/C (second compound 0.0316 µM, first compound 0.1 µM) 86.5% | viability, T/C (second compound 0.1 µM, first compound 0.000316 µM) 107% | viability, T/C (second compound 0.1 µM, first compound 0.001 µM) 78.9% | viability, T/C (second compound 0.1 µM, first compound 0.00316 µM) 90.2% | viability, T/C (second compound 0.1 µM, first compound 0.01 µM) 76.9% | viability, T/C (second compound 0.1 µM, first compound 0.0316 µM) 77.6% | viability, T/C (second compound 0.1 µM, first compound 0.1 µM) 83.9% | viability, T/C (second compound 0.316 µM, first compound 0.000316 µM) 93.9% | viability, T/C (second compound 0.316 µM, first compound 0.001 µM) 100% | viability, T/C (second compound 0.316 µM, first compound 0.00316 µM) 80.2% | viability, T/C (second compound 0.316 µM, first compound 0.01 µM) 106% | viability, T/C (second compound 0.316 µM, first compound 0.0316 µM) 109% | viability, T/C (second compound 0.316 µM, first compound 0.1 µM) 90.5% | viability, T/C (second compound 1 µM, first compound 0.000316 µM) 73.3% | viability, T/C (second compound 1 µM, first compound 0.001 µM) 75% | viability, T/C (second compound 1 µM, first compound 0.00316 µM) 93% | viability, T/C (second compound 1 µM, first compound 0.01 µM) 74.3% | viability, T/C (second compound 1 µM, first compound 0.0316 µM) 107% | viability, T/C (second compound 1 µM, first compound 0.1 µM) 74.1% | viability, T/C (second compound 3.16 µM, first compound 0.000316 µM) 72.7% | viability, T/C (second compound 3.16 µM, first compound 0.001 µM) 81.7% | viability, T/C (second compound 3.16 µM, first compound 0.00316 µM) 79% | viability, T/C (second compound 3.16 µM, first compound 0.01 µM) 69.9% | viability, T/C (second compound 3.16 µM, first compound 0.0316 µM) 87.6% | viability, T/C (second compound 3.16 µM, first compound 0.1 µM) 76% | viability, T/C (second compound 10 µM, first compound 0.000316 µM) 95.6% | viability, T/C (second compound 10 µM, first compound 0.001 µM) 91.9% | viability, T/C (second compound 10 µM, first compound 0.00316 µM) 97.8% | viability, T/C (second compound 10 µM, first compound 0.01 µM) 87.8% | viability, T/C (second compound 10 µM, first compound 0.0316 µM) 94% | viability, T/C (second compound 10 µM, first compound 0.1 µM) 73.7%
< 7.00: pIC50 (second compound 0.0316 µM) | pIC50 (second compound 0.1 µM) | pIC50 (second compound 0.316 µM) | pIC50 (second compound 1 µM) | pIC50 (second compound 3.16 µM) | pIC50 (second compound 10 µM)
